Laboratory results taken from US7649001B2.
Numbering of substitutions follows the chain as printed. Where a name gives a salt, the structure may show the parent alone.

Assays:
[1] = molecular target: T1, LNCaP type mutant androgen receptor (AR) (Homo sapiens, UniProt P10275, T878A); assay: AR-binding inhibition test (LNCaP type); details: read-out: Inhibition rate (%) at 100 nM LNCaP type
T1 sequence (P10275 1-920 T878A): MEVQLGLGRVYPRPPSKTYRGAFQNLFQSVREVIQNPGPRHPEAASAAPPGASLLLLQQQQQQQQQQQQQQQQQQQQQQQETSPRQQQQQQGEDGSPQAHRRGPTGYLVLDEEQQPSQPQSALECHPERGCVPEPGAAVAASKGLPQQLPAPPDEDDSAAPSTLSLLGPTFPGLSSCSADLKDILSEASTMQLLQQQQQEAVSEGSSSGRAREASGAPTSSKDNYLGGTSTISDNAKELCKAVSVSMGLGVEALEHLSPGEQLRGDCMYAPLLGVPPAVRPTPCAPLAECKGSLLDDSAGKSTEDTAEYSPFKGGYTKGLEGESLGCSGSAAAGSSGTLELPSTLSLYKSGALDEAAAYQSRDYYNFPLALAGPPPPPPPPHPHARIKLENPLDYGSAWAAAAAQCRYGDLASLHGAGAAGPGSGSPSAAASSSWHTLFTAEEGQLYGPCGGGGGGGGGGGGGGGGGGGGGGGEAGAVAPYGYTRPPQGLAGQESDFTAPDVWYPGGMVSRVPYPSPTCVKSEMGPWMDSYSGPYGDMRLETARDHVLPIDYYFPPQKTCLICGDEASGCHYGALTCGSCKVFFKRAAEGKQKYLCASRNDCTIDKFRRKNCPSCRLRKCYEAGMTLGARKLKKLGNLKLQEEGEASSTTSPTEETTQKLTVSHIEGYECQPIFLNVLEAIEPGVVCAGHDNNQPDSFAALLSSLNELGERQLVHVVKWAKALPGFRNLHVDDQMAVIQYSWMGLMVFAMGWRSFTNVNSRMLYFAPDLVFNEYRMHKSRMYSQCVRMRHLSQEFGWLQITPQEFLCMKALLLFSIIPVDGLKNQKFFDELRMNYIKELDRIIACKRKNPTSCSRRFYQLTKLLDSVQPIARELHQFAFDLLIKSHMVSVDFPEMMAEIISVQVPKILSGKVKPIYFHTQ

[2] = molecular target: T2, wild type androgen receptor (AR) (Homo sapiens, UniProt P10275); assay: AR-binding inhibition test (wild type); details: read-out: Inhibition rate (%) at 100 nM Wild type
T2 sequence (P10275 1-920): T1 sequence (P10275 1-920 T878A) with A878T

[3] = system: Human prostate cancer cell strain LNCaP-FGC; assay: cells; type: cell-based; details: 72 h, read-out: Promotion rate (%) on PSA production at 100 nM

Structure (SMILES) | melting point [°C] | inhibition at 0.1 µM [1] [%] | inhibition at 0.1 µM [2] [%] | activation at 0.1 µM [3] [%]
CC1CCCN1c1ccc(C#N)c2occc12 (stereo not drawn) [Compound 95, 4-(2-methyl-1-pyrrolidinyl)-1-benzofuran-7-carbonitrile] | 82 to 83 | 105 | 92 | –
C[C@H]1[C@H](O)CCN1c1ccc(C#N)c2ccccc12 [Compound 113, 4-[(2S,3R)-3-hydroxy-2-methyl-1-pyrrolidinyl]-1-naphthonitrile] | – | 98 | 97 | 88
N#Cc1ccc(N2CCC(F)C2)c2ccsc12 (stereo not drawn) [Compound 100, 4-(3-fluoro-1-pyrrolidinyl)-1-benzothiophene-7-carbonitrile] | 151 to 152 | 92 | 97 | 82
N#Cc1ccc(N2CCC(O)C2)c2ccccc12 (stereo not drawn) [Compound 18, 4-(3-hydroxy-1-pyrrolidinyl)-1-naphthonitrile] | 138 to 139 | 79 | 96 | –
COC[C@H]1CCCN1c1ccc(C#N)c2ccccc12 [Compound 45, 4-[(2R)-2-(methoxymethyl)pyrrolidin-1-yl]-1-naphthonitrile hydrochloride] | – | 110 | 105 | –
CC[C@@H]1CCCN1c1ccc(C#N)c2ccccc12 [Compound 84, 4-[(2R)-2-ethyl-1-pyrrolidinyl]-1-naphthonitrile] | – | 93 | 88 | –
C[C@H]1[C@@H](O)CCN1c1ccc(C#N)c2ccccc12 [Compound 116, 4-[(2S,3S)-3-hydroxy-2-methyl-1-pyrrolidinyl]-1-naphthonitrile] | – | 94 | 99 | 84
N#Cc1ccc(N2CCCCC2)c2ccsc12 [Compound 73, 4-(1-piperidinyl)-1-benzothiophene-7-carbonitrile] | 99 to 100 | 95 | 95 | –
N#Cc1ccc(N2CCC(F)C2)c2ccccc12 (stereo not drawn) [Compound 99, 4-(3-fluoro-1-pyrrolidinyl)-1-naphthonitrile] | – | 92 | 98 | 83
N#Cc1ccc(N2CCC(CCO)C2)c2ccccc12 (stereo not drawn) [Compound 141, 4-[3-(2-hydroxyethyl)-1-pyrrolidinyl]-1-naphthonitrile] | – | 101 | 96 | 87
C[C@H]1[C@@H](CO)CCN1c1ccc(C#N)c2ccccc12 [Compound 107, 4-[(2S,3S)-3-(hydroxymethyl)-2-methyl-1-pyrrolidinyl]-1-naphthonitrile] | – | 93 | 95 | 95
N#Cc1ccc(N2CCCC2)c2ccccc12 [Compound 1, 4-(1-pyrrolidinyl)-1-naphthonitrile] | – | 78 | 88 | –
CC[C@H]1CCCN1c1ccc(C#N)c2ccccc12 [Compound 83, 4-[(2S)-2-ethyl-1-pyrrolidinyl]-1-naphthonitrile] | – | 102 | 95 | 95
CC(C)[C@H]1CCCN1c1ccc(C#N)c2ccccc12 [Compound 144, 4-[(2R)-2-isopropyl-1-pyrrolidinyl]-1-naphthonitrile] | – | 102 | 103 | 87
C[C@H]1[C@@H](C(N)=O)CCN1c1ccc(C#N)c2ccccc12 | 204 to 206 | – | – | –
C[C@H]1CCCN1c1ccc(C#N)c2ccccc12 [Compound 85, 4-[(2S)-2-methyl-1-pyrrolidinyl]-1-naphthonitrile] | – | 99 | 95 | 92

Structure (SMILES) | melting point [°C] | inhibition at 0.1 µM [1] [%] | inhibition at 0.1 µM [2] [%] | activation at 0.1 µM [3] [%]
COC[C@H]1CCCN1c1ccc(C#N)c2ccccc12 (as salt: hydrochloride) [Compound 45, 4-[(2R)-2-(methoxymethyl)pyrrolidin-1-yl]-1-naphthonitrile hydrochloride] | 88 to 89 | – | – | –
N#Cc1c(Br)cc(N2CCCCC2)c2ccccc12 | 179 to 180 | – | – | –
CC1CCCN1c1ccc(C#N)c2ccccc12 (stereo not drawn) [Compound 47, 4-(2-methylpyrrolidin-1-yl)-1-naphthonitrile hydrochloride] | – | 116 | 116 | 88
N#Cc1ccc(N2CCC(CO)C2)c2ccccc12 (stereo not drawn) [Compound 50, 4-[3-(hydroxymethyl)pyrrolidin-1-yl]-1-naphthonitrile hydrochloride] | – | 102 | 91 | 88
CO[C@@H]1C[C@H](C)N(c2ccc(C#N)c3ccccc23)C1 | 88 to 89 | – | – | –
C[C@H]1[C@@H](O)CCN1c1ccc(C#N)c2sccc12 [Compound 118, 4-[(2S,3S)-3-hydroxy-2-methyl-1-pyrrolidinyl]-1-benzothiophene-7-carbonitrile] | – | 95 | 96 | 88
N#Cc1ccc(N2CCCC(CO)C2)c2ccccc12 (stereo not drawn) [Compound 19, 4-[3-(hydroxymethyl)-1-piperidinyl]-1-naphthonitrile] | – | 91 | 75 | 70
CC1(CO)CCCN(c2ccc(C#N)c3ccccc23)C1 (stereo not drawn) [Compound 56, 4-[3-(hydroxymethyl)-3-methyl-1-piperidinyl]-1-naphthonitrile] | – | 91 | 80 | 96
N#Cc1ccc(N2CCCCC2)c2ccccc12 [Compound 3, 4-(1-piperidinyl)-1-naphthonitrile] | – | 97 | 97 | 90
CN1C(=O)CCN1c1ccc(C#N)c2ccccc12 | 192 to 193 | – | – | –
CO[C@@H]1CCN(c2ccc(C#N)c3ccccc23)[C@H]1C [Compound 139, 4-[(2S,3R)-3-methoxy-2-methyl-1-pyrrolidinyl]-1-naphthonitrile] | – | 99 | 95 | 73
CC1CCCN1c1ccc(C#N)c2sccc12 (stereo not drawn) [Compound 76, 4-(2-methyl-1-pyrrolidinyl)-1-benzothiophene-7-carbonitrile] | – | 97 | 102 | 85
C=C[C@H]1CCCN1c1ccc(C#N)c2ccccc12 [Compound 81, 4-[(2R)-2-vinyl-1-pyrrolidinyl]-1-naphthonitrile] | – | 100 | 104 | 98
C=C[C@@H]1CCCN1c1ccc(C#N)c2ccccc12 [Compound 82, 4-[(2S)-2-vinyl-1-pyrrolidinyl]-1-naphthonitrile] | – | 94 | 85 | –
N#Cc1ccc(N2CCCCCC2)c2ccccc12 [Compound 10, 4-(1-azepaneyl)-1-naphthonitrile] | – | 144 | 112 | 75
C[C@H]1[C@@H](C#N)CCN1c1ccc(C#N)c2ccccc12 | 143 to 145 | – | – | –
